Assay results as given in patent publication US20150079168A1 (Keryx Biopharmaceuticals, Inc., priority 2012, published 2015).
Where two headings read alike, the source gives them in different places.

Tests used:
[1] = BET active surface area; assay type: physicochemical
Excerpt: BET theory explains the physical adsorption of gas molecules onto a solid surface. The theory serves as the basis for the measurement of the specific surface area of a material. This theory allows the calculation of surface areas of materials in a very accurate manner and is thus capable of distinguishing differences between separate preparations of what would otherwise appear to be the same material. For example, activated carbon is a form of carbon that has been processed to make it extremely porous and thus to have a very large surface area. Activated carbon has been experimentally determined, using calculations derived from BET theory, to have a surface area of around 3000 m^2 g^−1.

[2] = test system: patients with end-stage renal disease (ESRD) on dialysis; experiment: Three-period trial of ferric citrate as phosphate binder: 52-week randomized, open-label, active control Safety Assessment Period; assay type: in vivo, human
Description: This trial was a three-period, multicenter, safety and efficacy clinical trial.
Patients were followed on their randomized assignment for safety assessments over 52 weeks.
Calcium acetate 667 mg capsules and sevelamer carbonate 800 mg tablets were used and were supplied by Keryx Biopharmaceuticals, Inc. (Keryx) for the duration of the trial.
Serum phosphorus and calcium were checked at Visit 5 (Week 1), and every two weeks during the first 12 weeks after Visit 4 (Randomization Visit), and monthly for the rest of the Safety Assessment Period. During the Efficacy Assessment Period, serum phosphorus and calcium were drawn weekly. These values guided study drug administration. While on study drug, the use of other phosphate binders was not permitted. […] The titration of calcium acetate and sevelamer carbonate throughout the 52-week Safety Assessment Period were according to the current package inserts for these agents and/or at the discretion of the site PI.
Patients took study drug orally with or within one hour of meals or snacks. […] The PI or designee at each site dispensed the study drug to the patient and instructed the patient on how to administer it. It was recognized that some patients required a different distribution in pills in a given day due to snacks or missed meals.
Serum phosphorus and calcium were performed at Screening (Visit 0); weekly during the Washout Period after Visit 1 (Week −2); at Visit 4 (Randomization Visit); at Visits 5 (Week 1), 6 (Week 2), 7 (Week 4), 8 (Week 6), 9 (Week 8), 10 (Week 10), 11 (Week 12), 12 (Week 16), 13 (Week 20), 14 (Week 24), 15 (Week 28), 16 (Week 32), 17 (Week 36), 18 (Week 40), 19 (Week 44), 20 (Week 48), and 21 (Week 52) of the 52-week Safety Assessment Period; and at Visits 22 (Week 53), 23 (Week 54), 24 (Week 55) and 25 (Week 56) of the Efficacy Assessment Period. […]
The efficacy analyses were based on Full Analysis (FA) population that consisted of all patients who took at least one dose of study medication and provided baseline and at least one post-baseline efficacy assessment. The safety analyses were based on safety population that was consistent of all patients who took at least one dose of study medication.
There were two unique and distinct baseline assessments. The baseline for the Safety Assessment Period was the Randomization Visit (Visit 4) and was defined as “Week-0-baseline.” The baseline for the Efficacy Assessment Period was the last visit of the Safety Assessment Period (Visit 21. Week 52) and was defined as “study-baseline.”

[3] = Week 12, ANCOVA, Day-0 baseline covariate

For ferric citrate [Batch No. 35102], the “BET Active Surface Area” value [1] was 30.6 m^2/g.
For ferric citrate [STM-134-1], the “BET Active Surface Area” value ([1]; Table 1, unit not given) was 16.17.
In the case of ferric citrate [STM-182-1], the “BET Active Surface Area” value ([1]; Table 1, unit not given) is reported as 19.85.
For ferric citrate [Batch No. 35106], the “BET Active Surface Area” value [1] was 28.5 m^2/g.
In the case of ferric citrate [RFS-12-1], the “BET Active Surface Area” value [1] is reported as 0.61 m^2/g and the “BET Active Surface Area” value ([1]; Table 1, unit not given) is reported as 0.61.
In the case of sevelamer carbonate, the “Calcium, Mean (SD)” value ([2]; Baseline) is reported as 9.056 (0.7291) MG/DL, the “Calcium, Median” value ([2]; Baseline) is reported as 9.150 mg/dL and the “Product Of Calcium And Phosphorus, Mean (SD)” value ([2]; Baseline) is reported as 68.0872 (16.29). The “Product Of Calcium And Phosphorus, Median” value ([2]; Baseline) was 66.2700, the “Phosphorus, Mean (SD)” value ([2]; Baseline (Table 12)) was 7.51 (1.633) MG/DL and the “Phosphorus, Median” value ([2]; Baseline (Table 12)) was 7.40 mg/dL. The “Calcium, Change from Baseline, Mean (SD)” value ([2]; Week 12) was 0.175 (0.7509) MG/DL, the “Calcium, Change from Baseline, Median” value ([2]; Week 12) was 0.100 mg/dL and the “Calcium, Mean (SD)” value ([2]; Week 12) was 9.231 (0.7210) MG/DL. For the same substance, the “Calcium, Median” value ([2]; Week 12) was 9.400 mg/dL, the “Product Of Calcium And Phosphorus, Change from Baseline, Mean (SD)” value ([2]; Week 12) was −20.0621 (19.17) and the “Product Of Calcium And Phosphorus, Change from Baseline, Median” value ([2]; Week 12) was −19.8500. The “Product Of Calcium And Phosphorus, Mean (SD)” value ([2]; Week 12) was 48.0251 (14.37), the “Product Of Calcium And Phosphorus, Median” value ([2]; Week 12) was 46.2800 and the “Phosphorus, Change from Baseline, Mean (SD)” value ([2]; Week 12 (Table 12)) was −2.28 (2.169) MG/DL. For the same substance, the “Phosphorus, Change from Baseline, Median” value ([2]; Week 12 (Table 12)) was -2.45 mg/dL, the “Phosphorus, Mean (SD)” value ([2]; Week 12 (Table 12)) was 5.23 (1.713) MG/DL and the “Phosphorus, Median” value ([2]; Week 12 (Table 12)) was 5.00 mg/dL. For the same substance, the “Calcium, LS Mean (SE)” value [2, 3] was 9.15 (0.08) MG/DL, the “Product Of Calcium And Phosphorus, LS Mean (SE)” value [2, 3] was 47.52 (1.50) and the “Phosphorus, LS Mean (SE)” value ([2]; Week 12, ANCOVA, Day-0 baseline covariate (Table 12)) was 5.22 (0.17) MG/DL.
For ferric citrate [Batch No. 35103], the “BET Active Surface Area” value [1] was 29.1 m^2/g.
With ferric citrate [Batch No. 35105] the “BET Active Surface Area” value [1] was 31.5 m^2/g.
